{"source": "patent US11806343B2", "about": "“Inhibitors of DUX4 induction for regulation of muscle function” (Sonic Master Limited, priority 2017, dated 2023)", "assay_type_in_all_cases": "cell-based, human", "key": {"[1]": {"tested_on": "Caspase 3/7", "experiment": "Live cell imaging of Caspase 3/7 cleavage dye fluorescence through myotube formation", "settings": "17MB026 primary myotubes, six concentrations 10 nM-3 μM, imaged four days", "description": "17MB026 primary FSHD-affected patient myoblasts (obtained from the University of Rochester FSHD Biorepository) were thawed and cultured as described in Rickard et al., 2015 in primary myoblast medium. Cells (4000 per well) were seeded to a collagen-I coated 96-well plate in 100 μL primary myoblast medium. Medium was changed every other day until cells reached 80% continence followed by a switch to 100 μL per well primary myotube medium containing 1:5000 diluted Caspase 3/7 Green. Apoptosis Assay Reagent (Essen Bioscience). […] Cells were imaged in the phase and green channels every six hours for four days to quantify green intensity×area per image. Triplicate wells of each condition were averaged."}, "[2]": {"tested_on": "PRKDC", "experiment": "RT-PCR of PRKDC mRNA in patient biopsy-derived primary myotubes", "settings": "10 nM-1 μM, 2.5 days, vs vehicle", "description": "Patient biopsy-derived primary myoblasts were seeded to a collagen-I coated plate in primary myoblast medium. Medium was changed every other day until cells reached 80% confluence followed by a switch to primary myotube medium. […] After 2.5 days of myotube formation, the cells were lysed with buffer RLT followed by RNA isolation with RNeasy Plus Mini Kit (Qiagen). 500 ng of RNA was used for cDNA synthesis with SuperScript III first-strand synthesis system for RT-PCR (Invitrogen) and both random hexamers and oligo(dT)20 primers. RT-PCR was performed using TaqMan™ Fast Advanced Master Mix (Applied Biosystems). Reactions were analyzed upon a QuantStudio 3 Real-Time PCR machine using the following cycle conditions: 50° C. for 2 minutes, 95° C. for 2 minutes, followed by 40 cycles at 95° C. for 15 seconds, 60° C. for 1 minute, Results were normalized against GAPDH expression."}, "[3]": {"tested_on": "4qA and D4Z4 regions of chromosome 4", "experiment": "Bisulfite sequencing of DNA methylation at 4qA and D4Z4 regions in FSHD-affected myotubes", "settings": "Genea049 FSHD-affected myotubes, 10 nM, 100 nM or 1 μM, myotube day 3", "description": "Healthy (Genea015) or FSHD-affected (Genea049) MSC-derived myoblasts were cultured in Myoblast Media (Genea Biocells) while performing media changes every other day. When cells reached confluence, the medium was switched to Myottibe Medium (Genea Biocells) without any further media changes. On myotube day 3, cells were trypsinized and cell pellets were prepared for bisulfite sequencing analysis. Genomic DNA was isolated from cell pellets using QIAamp DNA Blood Mini Kit (Qiagen) and bisultite converted using the EpiTect Kit (Qiagen). The 4qA and D4Z4 regions were amplified and cloned into the pCR2.1 TOPO vector. The 4qA or D4Z4 containing plasmids were transformed into TOP10 chemically competent E. coli and selected for kanamycin resistance. Sequencing of kanamycin resistant colonies was completed by Sequegen and methylation analysis was performed using Bisulfite Sequencing DNA Methylation Analysis (BISMA) online software.\nFSHD-affected. (Genea049) embryonic stem cell-derived myoblasts were cultured in Myoblast Media (Genea Biocells) while performing media changes every other day. When cells reached confluence, the medium was switched to Myotube Medium (Genea. Biocells) without any further media changes. […] On myotube day 3, myotubes were trypsinized and cell pellets were prepared for bisulfite sequencing analysis. Refer to the FIG. 1 legend for additional details."}}, "data": [{"smiles": "CNC(=O)c1cc(Oc2ccc(NC(=O)Nc3cc(C(C)(C)C)nn3-c3ccc4ncccc4c3)c(F)c2)ccn1", "note": "[GBC0905, Rebastinib]", "values": [{"measurement": "Caspase 3/7 activation", "setting": "[1]", "result": "dose-dependent decrease in Caspase 3/7 activation"}, {"measurement": "expression levels of PRKDC (mRNA)", "setting": "[2]", "result": "No significant difference"}, {"measurement": "DNA methylation levels at 4qA or D4Z4 regions", "setting": "[3]", "result": "No statistically significant effect"}]}]}
